Data: patent US20040171688A1, “Carboxylic acids and derivatives thereof and pharmaceutical compositions containing them” (priority 1997, published 2004)
pEC50: −log10 of the molar value.

Biological target: T1, HNF-4α (Rattus norvegicus, UniProt P22449)
T1 sequence (P22449 1-464 isoform P22449-2): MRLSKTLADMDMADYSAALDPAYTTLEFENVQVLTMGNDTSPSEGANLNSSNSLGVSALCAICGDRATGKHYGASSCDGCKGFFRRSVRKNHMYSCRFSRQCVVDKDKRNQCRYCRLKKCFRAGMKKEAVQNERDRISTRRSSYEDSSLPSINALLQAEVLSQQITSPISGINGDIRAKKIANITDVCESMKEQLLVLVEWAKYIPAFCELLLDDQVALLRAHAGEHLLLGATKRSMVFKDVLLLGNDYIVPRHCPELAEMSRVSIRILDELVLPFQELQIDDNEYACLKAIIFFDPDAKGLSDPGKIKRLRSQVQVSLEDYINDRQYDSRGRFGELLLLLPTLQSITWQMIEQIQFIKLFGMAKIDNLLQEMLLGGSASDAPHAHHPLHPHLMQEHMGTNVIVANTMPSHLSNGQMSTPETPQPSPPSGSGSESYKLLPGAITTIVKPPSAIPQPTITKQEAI
Assay: Transfection assay: COS-7 cells cotransfected with (C3P)3-TK-CAT reporter and pSG5-HNF-4α
Type: cell-based
Design: expressed in transfected cells; host or cells: COS-7
Conditions: for pEC50: proligands added to culture medium of COS-7 cells (FIG. 4b), read-out: EC50 of HNF-4α suppression (CAT activity); for inhibition of HNF-4α transcriptional activity, effectiveness in words: transfection assays, added to culture medium; for effect on HNF-4α dependent transcription (CAT activity): free fatty acids added to culture medium of COS-7 cells (FIG. 4a)
Experimental: a. […] Fold induction of CAT activity by transfected HNF-4I is determined by evaluating CAT activity in the presence of pSG5-HNF-4I as compared with pSG5 plasmid and as function of respective fatty acids added to the culture medium as indicated. The figure summarizes 3-4 independent experiments for each fatty acid. Mean ± S.E.
b. […] Fold induction refers to CAT activity in cells incubated with 3,3,12,12-tetramethyl-tetradecanedioic acid (∘), 3,3,14,14-tetramethyl-hexadecanedioic acid (□) and 3,3,16,16-tetramethyl-octadecanedioic acid (Δ) proligands normalized to the activity in cells incubated in the absence of added proligands.
COS-7 cells cotransfected for 6 h with the (C3P)3-TK-CAT reporter plasmid (5 μg) and with either the pSG5-HNF-4α expression plasmid ([…]) or the pSG5 plasmid (0.025 μg) added by calcium phosphate precipitation were cultured in serum free medium with fatty acids (complexed with albumin in a molar ratio of 6:1) added as indicated. β-Galactosidase expression vector pRSGAL (1 μg) added to each precipitate served as an internal control for transfection. The (C3P)3-TK-CAT construct was prepared by inserting a synthetic oligonucleotide encompassing the (−87/−66) Apo CIII promoter sequence (5′-[…]-3′) flanked by HindIII restriction site into pBLCAT2^47 upstream of the −105 bp thymidine kinase promoter. The construct containing three copies of the synthetic oligonucleotide in the direct orientation was selected and confirmed by sequencing.
The intracellular effect of HNF-4α ligands on HNF-4α mediated transcription was evaluated in COS-7 cells cotransfected with an expression vector for HNF-4α and with a CAT reporter plasmid driven by a thymidine kinase promoter and enhanced by one to three C3P copies of the apo CIII gene promoter. Transfected cells were incubated in the presence of free fatty acids and xenobiotic amphipathic carboxylates representing agonistic or antagonistic HNF-4α proligands.

Row | SMILES | pEC50 | inhibition of HNF-4α transcriptional activity, effectiveness in words | effect on HNF-4α dependent transcription (CAT activity)
1 | CC(C)(CCCCCCCCCCC(C)(C)C(=O)O)C(=O)O [2,2,13,13-tetramethyl-tetradecane dioic acid] | 3.64 |  | 
2 | CC(C)(CCCCCCCCCCCCC(C)(C)C(=O)O)C(=O)O [2,2,15,15-tetramethyl-hexadecane dioic acid] | 3.82 | Highly effective | 
3 | CC(C)(CCCCCCCCCCCCCCC(C)(C)C(=O)O)C(=O)O [2,2,17,17-tetramethyl-octadecane dioic acid] | 3.82 | Highly effective | 
4 | CC(C)(CCCCCCCCC(C)(C)CCC(=O)O)CCC(=O)O [4,4,13,13-tetramethyl-hexadecane dioic acid] | 3.82 | Highly effective | 
5 | CC(C)(CCCCCCCCCCC(C)(C)CCC(=O)O)CCC(=O)O [4,4,15,15-tetramethyl-octadecane dioic acid] | 3.82 | Highly effective | 
6 | CC(C)(CCCCCCCCCCCCCCO)C(=O)O [16-hydroxy-2,2-dimethyl-hexadecanoic acid] |  | effective | 
7 | CC(C)(CCCCCCCCCCCCCO)CC(=O)O [16-hydroxy-3,3-dimethyl-hexadecanoic acid] |  | effective | 
8 | CC(C)(CCCCCCCCCCCCO)CCC(=O)O [16-hydroxy-4,4-dimethyl-hexadecanoic acid] |  | effective | 
9 | O=C(O)CCCCCCCCCCCCCCCO [16-hydroxy-hexadecanoic acid] |  | effective | 
10 | CC(C)(CCCCCCCCCCCCCCCCO)C(=O)O [18-hydroxy-2,2-dimethyl-octadecanoic acid] |  | effective | 
11 | CC(C)(CCCCCCCCCCCCCCCO)CC(=O)O [18-hydroxy-3,3-dimethyl-octa-decanoic acid] |  | effective | 
12 | CC(C)(CCCCCCCCCCCCCCO)CCC(=O)O [18-hydroxy-4,4-dimethyl-octadecanoic acid] |  | effective | 
13 | O=C(O)CCCCCCCCCCCCCCCCCO [18-hydroxy-octadecanoic acid] |  | effective | 
14 | COc1ccc2c(c1)c(CC(=O)O)c(C)n2C(=O)c1ccc(Cl)cc1 [Indomethacine, reference compound] | 3.89 |  | 
15 | CC/C=C\C/C=C\C/C=C\C/C=C\C/C=C\CCCC(=O)O [eicosapentaenoic(20:5) acids, eicosapentaenoic(20:5) acid] |  |  | suppressive
16 | CCCCCCCCCCCCCCCC(=O)O [palmitic(16:0) acid] |  |  | dose dependent activation
17 | CC/C=C\C/C=C\C/C=C\CCCCCCCC(=O)O [α-linolenic(18:3), α-linolenic(18:3) acid] |  |  | suppressive
